US20190030114A1, “ISOFORM-SPECIFIC CALPAIN INHIBITORS, METHODS OF IDENTIFICATION, AND USES THEREOF” (WESTERN UNIVERSITY OF HEALTH SCIENCES, priority 2014, published 2019)
Where two headings read alike, the source gives them in different places.

Legend:
[1] = test system: retina (GCL, RGC), vision; test: acute IOP elevation, intravitreal C2l: GCL cell death, OKR visual acuity, RGC density
Procedure: FIG. 12C: H&E staining in retinal sections of WT mice after IOP elevation and intravitreal injection of vehicle or C2l. Vehicle or C2l (20 μM, 1 μI) was injected 2 h after IOP elevation or sham surgery. Eyes were collected 3 days after surgery for H&E staining. Scale bar=30 μm.
FIG. 12D: Quantification of GCL cell numbers, based on H&E stains, as described in FIG. 12C.
FIG. 12F: OKR spatial frequency thresholds of eyes measured 3 days after IOP elevation or sham surgery. Vehicle or C2l (20 μM, 1 μI) was injected intravitreally 2 h after surgery. Surgery and injection were always performed in the right eye (OD). OKR of the Left eye (OS) was measured as control.
One-way ANOVA followed by Bonferroni test.
FIG. 12H: RGC density in the retina of the eyes at 21 days after surgery, as described in FIG. 12F. Eyes were collected after OKR test 21 days after surgery. Brn-3a immunostaining was performed in retinal sections of the eyes. Brn-3a-positive cells in GCL were counted.
We used intravitreal C2l injection in order to locally deliver C2l to retina. First, we tested the delivery efficiency by injecting different doses of C2l intravitreally 2 h after IOP elevation in calpain-1 KO mice and analyzing SBDP levels in IPL at 4 h (FIG. 12A and B). […] In all subsequent experiments, 20 μM (1 μl) was used to examine the neuroprotective effects of intravitreal C2l injection. Eyes were collected 3 days after surgery for H&E staining.
To examine vision of mice after glaucoma, we tested the optokinetic reflex (OKR) in mice (FIG. 15A). OKR is the saccadic eye movement triggered by the movement of gratings in front of the mouse eye. Changing the frequency of gratings and determining the […] frequency triggering OKR, allows analyzing visual acuity of each eye. Acute IOP elevation or sham surgery was performed in the right eye (OD). Left eye (OS) served as a naive control. Intravitreal C2l or vehicle injection was performed 2 h after surgery. Three and 21 days after surgery, OKR was determined in both eyes (FIG. 5f,g). […] Mice were sacrificed after OKR test at day 21 and RGC densities were analyzed with brn-3a immunostaining in retinal sections (FIG. 12H).

[2] = test system: cultured cortical neurons; test: Bic- and 4-AP-induced neuroprotection against starvation, Hoechst staining; assay type: cell-based; conditions: mCalp-I 200 nM
Text: Neuronal death was observed and quantified by Hoechst staining. 300-500 neurons were counted for each group in three to 6 independent experiments. *p<0.05; ns, no significant difference; one-way ANOVA followed by Bonferroni test. n=3-6. Error Bar indicates SEM
Neuronal death was observed and quantified by Hoechst staining. 300-500 neurons were counted for each group in three to 6 independent experiments. *p<0.05; ns, no significant difference; one-way ANOVA followed by Bonferroni test. n=3-6. Error Bar indicates SEM (FIG. 6).

calpain-1 = target: T1, calpain-1 (Homo sapiens, UniProt P07384); test: in vitro calpain-1 inhibition, succinic-Leu-Tyr-AMC substrate; assay type: biochemical
T1 sequence (P07384 1-714): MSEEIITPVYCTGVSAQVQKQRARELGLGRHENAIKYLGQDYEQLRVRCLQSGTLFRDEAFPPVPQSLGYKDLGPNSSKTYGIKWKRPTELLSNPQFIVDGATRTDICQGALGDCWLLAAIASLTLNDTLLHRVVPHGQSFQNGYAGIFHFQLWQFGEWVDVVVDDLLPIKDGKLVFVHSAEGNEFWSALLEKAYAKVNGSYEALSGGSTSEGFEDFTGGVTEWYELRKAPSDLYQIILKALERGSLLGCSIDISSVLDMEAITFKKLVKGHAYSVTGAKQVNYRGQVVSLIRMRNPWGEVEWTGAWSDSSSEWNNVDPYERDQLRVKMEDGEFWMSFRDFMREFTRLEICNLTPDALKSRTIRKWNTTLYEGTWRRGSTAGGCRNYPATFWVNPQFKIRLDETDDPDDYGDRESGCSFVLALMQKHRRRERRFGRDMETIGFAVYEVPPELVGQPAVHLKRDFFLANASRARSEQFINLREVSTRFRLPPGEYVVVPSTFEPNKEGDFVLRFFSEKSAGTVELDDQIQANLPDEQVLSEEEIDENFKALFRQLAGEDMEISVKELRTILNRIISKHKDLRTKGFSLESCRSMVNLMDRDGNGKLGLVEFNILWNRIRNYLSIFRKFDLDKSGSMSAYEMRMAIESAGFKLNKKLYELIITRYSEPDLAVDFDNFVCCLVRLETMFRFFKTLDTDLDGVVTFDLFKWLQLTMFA
T1 sequence (P04632 1-268 partner): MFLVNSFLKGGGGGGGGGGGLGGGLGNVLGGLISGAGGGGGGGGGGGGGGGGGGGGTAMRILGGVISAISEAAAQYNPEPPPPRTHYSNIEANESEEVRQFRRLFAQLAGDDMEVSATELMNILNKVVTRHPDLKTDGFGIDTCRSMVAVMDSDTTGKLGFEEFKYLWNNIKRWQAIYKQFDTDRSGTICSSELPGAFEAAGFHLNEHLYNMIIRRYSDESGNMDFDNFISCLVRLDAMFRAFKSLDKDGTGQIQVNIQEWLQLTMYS
Procedure: Formula 1, where chiral center 1 is the L-form and chiral center 2 is a racemic mixture of D- and L- in this example was introduced at various concentrations (from 1 nM to 10 μM) into an in vitro mix comprising succinic-Leu-Tyr-AMC and calpain-1 or calpain-2 (Sasaki et al, 1984), and the kinetics of the loss of fluorescence were determined for each of the calpains (Powers et al, 2000). […] Therefore, the assessment of selectivity described herein was different than the prior teaching.
Formula 1A, where chiral center 1 is the S-form and chiral center 2 is the S-form was separated from the S-R-form (Formula 1B) using methods that are well-known methods for separating diastereoisomers. Formula 1A, which is also referred to herein as compound 18A, in this example was introduced at various concentrations into an in vitro mix comprising succinic-Leu-Tyr-AMC and μ-calpain or m-calpain (Sasaki et al, 1984), and the kinetics of the loss of fluorescence were determined for each of the calpains.

## CCC(NC(=O)C(CC(C)C)NC(=O)OCc1ccccc1)C(=O)C(=O)NCc1cc(OC)cc(OC)c1 (racemic) [Formula 1, Z-Leu-Abu-CONH—CH2-C6H3 (3, 5-(OMe)2)]
[1]; 20 μM (1 μl) intravitreal 2 h after IOP elevation, 3 days
  RGC counts (H&E), IOP-elevated eyes: 101.3±9.2 cells/mm
[1]; 20 μM (1 μl) intravitreal 2 h after IOP elevation, vehicle 47.2±5.4%
  Survival rate in GCL: 80.8±8.4%
[1]; 20 μM (1 μl) intravitreal 2 h after surgery, 3 days
  RGC counts (H&E), sham eye: 128.1±7.2 cells/mm
[1]; day 21
  RGC densities (brn-3a) in IOP elevated eyes: recovered
[1]; intravitreal 2 h after surgery, day 3 and day 21
  visual acuity (OKR) after increased IOP: significantly improved
[1]; intravitreal injection in the sham eye
  visual acuity (OKR) of sham eye versus vehicle: did not affect visual acuity
[2]
  blocked Bic- and 4-AP-induced neuroprotection against starvation: not
calpain-1; Example 1, chiral center 2 racemic, read-out: Ki of calpain-1, re-determined herein
  Ki: 1290 nM
calpain-1; Example 13, n = 3-5, read-out: Ki Calpain-1
  Ki: 662 nM
calpain-1; earlier value, unit inferred, read-out: Previous Value (Calpain-1)
  Ki: 940 nM
calpain-1; n = 3-5
  IC50: 910 nM
